In US20230091908A1, “FLUORENE DERIVATIVE, METHOD FOR PRODUCING SAME, AND APPLICATION OF SAME” (Osaka Gas Chemicals Co., Ltd., priority 2019, published 2023):

What was measured:
[1] = 5% mass reduction temperature (TG-DTA); type: physicochemical
Experimental: (5% Mass Reduction Temperature)
The temperature, at which the mass of the sample is reduced by 5% by mass was measured using a Thermogravimeter-Differential Thermal Analyzer (TG-DTA) (manufactured by SII NanoTechnology Inc., “TG/DTA6200”) in an atmosphere of a nitrogen gas, at a heating rate (programming rate) of 10° C./min. The sample (cured product) was prepared as follows.
That is, 3 parts by mass of Irgacure 184 (manufactured by BASF Japan Ltd.) as a photopolymerization initiator was added to 100 parts by mass of the total amount of the acrylate compound (polymerization component) shown in Table 1 or 3 weighed in a brown bottle, and the mixture was heated to 120° C. for dissolution to obtain a curable composition. An UV irradiation (500 mJ/cm^2) was repeated 4 times on the obtained curable composition to prepare the cured product.

[2] = Solubility in various solvents; type: physicochemical; design: key to Solubility: A: Soluble; B: Some soluble, but turbid; C: Insoluble; conditions: for Solubility: stirred at 50° C. for 30 minutes
Experimental: The sample 0.3 g was weighed in a sample bottle, the solvent was added by 0.7 g (condition 1: solid content of 30% by mass) or 1.0 g (condition 2: solid content of 23% by mass), and each of the obtained mixed solutions was stirred at a temperature of 50° C. for 30 minutes by using a bioshaker (manufactured by TAITEC CORPORATION, “BR-43FH”). Each of the mixed solutions after stirring was evaluated according to the following criteria. The used solvents were methyl ethyl ketone (MEK), methyl isobuthyl ketone (MIBK), ethyl acetate, propylene glycol monomethyl ether acetate (PGMEA), toluene, dimethylformamide (DMF), or cyclohexanone.
B: Some soluble, but turbid

SMILES | 5% mass reduction temperature ([1]; compound as obtained) | melting point | Solubility ([2]; Cyclohexanone, solid content of 30% by mass) | Solubility ([2]; DMF, solid content of 30% by mass) | Solubility ([2]; Ethyl acetate, solid content of 30% by mass) | Solubility ([2]; MEK, solid content of 30% by mass) | Solubility ([2]; MIBK, solid content of 30% by mass) | Solubility ([2]; PGMEA, solid content of 23% by mass) | Solubility ([2]; PGMEA, solid content of 30% by mass) | Solubility ([2]; Toluene, solid content of 30% by mass) | Solubility in various solvents (summary in words) ([2]; summary of Table 2) | 5% mass reduction temperature ([1]; cured product of the compound (UV cured, Irgacure 184), nitrogen, 10° C./min)
COC(=O)CCC1(CCC(=O)OC)c2cc(-c3ccc4ccccc4c3)ccc2-c2ccc(-c3ccc4ccccc4c3)cc21 [DNFDP-m, 9,9-bis(2-methoxycarbonylethyl)-2,7-di(2-naphthyl)fluorene] | 390 °C |  |  |  |  |  |  |  |  |  |  | 
C=CC(=O)OCCCC1(CCCOC(=O)C=C)c2cc(-c3ccc4ccccc4c3)ccc2-c2ccc(-c3ccc4ccccc4c3)cc21 [DNPOA, 9,9-bis(3-acryloyloxypropyl)-2,7-di(2-naphthyl)fluorene] |  | 120 °C | A | A | A | A | A | A | B | A | high solubility in various solvents | 382 °C
